Experimental data as given in patent US12595248B2, “PRMT5 inhibitors” (Merck Sharp & Dohme LLC, priority 2019, dated 2026).
Where two headings read alike, the source gives them in different places.

Columns and labels:
PRMT5 = biological target: T1, PRMT5 (Homo sapiens, UniProt O14744); experiment: PRMT5 Cell Target Engagement (TE) Assay; assay type: cell-based; conditions: MCF-7 cells, treated for 3 days, symmetric dimethylation of arginine (SDMA) by high content imaging
T1 construct: seeded with 4000 MCF-7 cells in 30 μl media; endogenous in cells; host or cells: MCF-7 cells
Outline: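 Readout is single-cell nuclear symmetric-dimethylarginine immunofluorescence (Alexa488), normalized to DMSO-treated cells. Compounds were applied to MCF-7 cells for 3 days at 37 °C, top concentration 10000 nM in 1:3 steps over ten points; curves fitted with 4-parameter robust fit.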

[1] = biological target: T2, PRMT5-MEP50 enzyme complex (Homo sapiens, UniProt O14744); experiment: PRMT5-MEP50 Enzyme Methylation Assay (Version A); assay type: biochemical
T2 construct: Full-length (FL)-PRMT5-MEP50 enzyme complex (recombinant proteins from baculovirus-transfected Sf21 cells: FL-PRMT5; MW=73837 kDa and FL-MEP50; MW=38614); made in house; host or cells: baculovirus-transfected Sf21 cells

[2] = only one EC50 shown: 4 parameters single site sigmoidal model, 60 min pre-incubation with SAM, read-out: Enzyme Methylation Assay Version A (EC50)
[3] = first of two EC50s: 7 parameters biphasic model, read-out: Enzyme Methylation Assay Version A (EC50_1)
[4] = second of two EC50s: 7 parameters biphasic model, read-out: Enzyme Methylation Assay Version A (EC50_2)

T2 sequence (O14744 whole entry): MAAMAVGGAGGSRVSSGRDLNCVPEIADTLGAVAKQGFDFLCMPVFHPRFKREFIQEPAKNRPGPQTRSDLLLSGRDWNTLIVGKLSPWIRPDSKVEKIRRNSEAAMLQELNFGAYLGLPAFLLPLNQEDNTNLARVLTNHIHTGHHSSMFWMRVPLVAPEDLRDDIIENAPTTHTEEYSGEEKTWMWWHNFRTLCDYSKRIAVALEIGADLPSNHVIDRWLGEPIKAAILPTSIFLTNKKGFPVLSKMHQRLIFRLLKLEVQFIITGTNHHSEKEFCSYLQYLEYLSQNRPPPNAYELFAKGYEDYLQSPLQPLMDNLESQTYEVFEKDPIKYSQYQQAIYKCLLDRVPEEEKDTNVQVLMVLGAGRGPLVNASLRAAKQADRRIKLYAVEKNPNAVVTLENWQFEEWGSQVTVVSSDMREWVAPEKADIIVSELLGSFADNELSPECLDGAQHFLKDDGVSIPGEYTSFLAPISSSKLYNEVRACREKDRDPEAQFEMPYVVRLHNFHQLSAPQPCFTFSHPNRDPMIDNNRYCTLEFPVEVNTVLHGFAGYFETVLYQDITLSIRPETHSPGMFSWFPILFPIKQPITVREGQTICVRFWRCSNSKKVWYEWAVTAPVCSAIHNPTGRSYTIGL
T2 sequence (Q9BQA1 whole entry partner): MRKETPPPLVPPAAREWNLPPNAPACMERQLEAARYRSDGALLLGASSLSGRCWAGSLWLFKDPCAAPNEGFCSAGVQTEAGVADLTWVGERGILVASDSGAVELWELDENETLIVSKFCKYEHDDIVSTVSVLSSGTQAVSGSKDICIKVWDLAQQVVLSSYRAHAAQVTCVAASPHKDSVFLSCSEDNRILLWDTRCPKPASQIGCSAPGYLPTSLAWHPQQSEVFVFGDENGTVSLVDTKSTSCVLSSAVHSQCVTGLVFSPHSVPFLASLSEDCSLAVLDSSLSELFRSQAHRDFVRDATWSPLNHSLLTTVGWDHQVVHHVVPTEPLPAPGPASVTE
T1 sequence (O14744 whole entry): as the sequence (O14744 whole entry) above
T1 sequence (Q9BQA1 whole entry partner): as the sequence (Q9BQA1 whole entry partner) above

| EC50 (PRMT5) | EC50 [1, 2] | EC50 [1, 3] | EC50 [1, 4] | Structure (SMILES) |
| --- | --- | --- | --- | --- |
| 32 nM | 3.2 nM | – | – | O=C(c1cn2cc(Cl)ccc2n1)N1CC[C@H](N2CCc3ccccc3C2)[C@@H](O)C1 [Example 132, (6-chloroimidazo[1,2-a]pyridin-2-yl)[(3S,4S)-4-(3,4-dihydroisoquinolin-2(1H)-yl)-3-hydroxypiperidin-1-yl]methanone] |
| 140 nM | – | 3.2 nM | 569 nM | O=C(c1nn2cc(Br)cnc2c1Cl)N1CC[C@H](N2CCc3ccccc3C2)[C@@H](O)C1 [Example 133, (6-bromo-3-chloropyrazolo[1,5-a]pyrimidin-2-yl)[(3S,4S)-4-(3,4-dihydroisoquinolin-2(1H)-yl)-3-hydroxypiperidin-1-yl]methanone] |
| 43 nM | – | 1.8 nM | 202 nM | Cc1cc(Br)c2nc(C(=O)N3CC[C@H](N4CCc5ccccc5C4)[C@@H](O)C3)cn2c1 [Example 134, (8-bromo-6-methylimidazo[1,2-a]pyridin-2-yl)[(3S,4S)-4-(3,4-dihydroisoquinolin-2(1H)-yl)-3-hydroxypiperidin-1-yl]methanone] |
| 12 nM | 1.7 nM | – | – | Cc1cc(Br)cn2cc(C(=O)N3CC[C@H](N4CCc5ccccc5C4)[C@@H](O)C3)nc12 [Example 135, (6-bromo-8-methylimidazo[1,2-a]pyridin-2-yl)[(3S,4S)-4-(3,4-dihydroisoquinolin-2(1H)-yl)-3-hydroxypiperidin-1-yl]methanone] |
| 50 nM | – | 1.2 nM | 79 nM | Cc1cc(Cl)c2nc(C(=O)N3CC[C@H](N4CCc5ccccc5C4)[C@@H](O)C3)cn2c1 [Example 136, (8-chloro-6-methylimidazo[1,2-a]pyridin-2-yl)[(3S,4S)-4-(3,4-dihydroisoquinolin-2(1H)-yl)-3-hydroxypiperidin-1-yl]methanone] |
| 9.2 nM | 1.1 nM | – | – | O=C(c1cn2cc(C(F)(F)F)cc(Cl)c2n1)N1CC[C@H](N2CCc3ccccc3C2)[C@@H](O)C1 [Example 137, [8-chloro-6-(trifluoromethyl)imidazo[1,2-a]pyridin-2-yl][(3S,4S)-4-(3,4-dihydroisoquinolin-2(1H)-yl)-3-hydroxypiperidin-1-yl]methanone] |
| 17 nM | – | 1.1 nM | 39 nM | O=C(c1cn2cc(Cl)cc(Br)c2n1)N1CC[C@H](N2CCc3ccccc3C2)[C@@H](O)C1 [Example 138, (8-bromo-6-chloroimidazo[1,2-a]pyridin-2-yl)[(3S,4S)-4-(3,4-dihydroisoquinolin-2(1H)-yl)-3-hydroxypiperidin-1-yl]methanone] |
| 7.6 nM | 1.3 nM | – | – | O=C(c1cn2cc(Br)cc(I)c2n1)N1CC[C@H](N2CCc3ccccc3C2)[C@@H](O)C1 [Example 139, (6-bromo-8-iodoimidazo[1,2-a]pyridin-2-yl)[(3S,4S)-4-(3,4-dihydroisoquinolin-2(1H)-yl)-3-hydroxypiperidin-1-yl]methanone] |
| 28 nM | – | 0.8 nM | 65 nM | O=C(c1cn2cc(Cl)cc(Cl)c2n1)N1CC[C@H](N2CCc3ccccc3C2)[C@@H](O)C1 [Example 140, (6,8-dichloroimidazo[1,2-a]pyridin-2-yl)[(3S,4S)-4-(3,4-dihydroisoquinolin-2(1H)-yl)-3-hydroxypiperidin-1-yl]methanone] |
| 21 nM | 1.1 nM | – | – | O=C(c1cn2cc(Br)cc(F)c2n1)N1CC[C@H](N2CCc3ccccc3C2)[C@@H](O)C1 [Example 141, (6-bromo-8-fluoroimidazo[1,2-a]pyridin-2-yl)[(3S,4S)-4-(3,4-dihydroisoquinolin-2(1H)-yl)-3-hydroxypiperidin-1-yl]methanone] |
| 8.6 nM | 1.1 nM | – | – | O=C(c1cn2cc(Br)cc(Br)c2n1)N1CC[C@H](N2CCc3ccccc3C2)[C@@H](O)C1 [Example 142, (6,8-dibromoimidazo[1,2-a]pyridin-2-yl)[(3S,4S)-4-(3,4-dihydroisoquinolin-2(1H)-yl)-3-hydroxypiperidin-1-yl]methanone] |
| 806 nM | – | 2.8 nM | 1820 nM | O=C(c1cc2ncc(Br)cn2n1)N1CC[C@H](N2CCc3ccccc3C2)[C@@H](O)C1 [Example 143, (6-bromopyrazolo[1,5-a]pyrimidin-2-yl)[(3S,4S)-4-(3,4-dihydroisoquinolin-2(1H)-yl)-3-hydroxypiperidin-1-yl]methanone] |
